Source: patent publication US8822449B2, “Substituted aminoindanes and analogs thereof, and the pharmaceutical use thereof” (Sanofi, priority 2008, dated 2014)

These molecules were tested against T1, sodium-proton exchanger of subtype 3 (NHE3) (Homo sapiens, UniProt P48764) (assay: Recovery of intracellular pH (pHi) after acidification in LAP1 cells stably expressing NHE3 (BCECF fluorescence, FLIPR)). Conditions: LAP1, read-out: Activity range (inhibitory effect on NHE3).
T1 construct: expressed in transfected cells
T1 sequence (P48764 26-834): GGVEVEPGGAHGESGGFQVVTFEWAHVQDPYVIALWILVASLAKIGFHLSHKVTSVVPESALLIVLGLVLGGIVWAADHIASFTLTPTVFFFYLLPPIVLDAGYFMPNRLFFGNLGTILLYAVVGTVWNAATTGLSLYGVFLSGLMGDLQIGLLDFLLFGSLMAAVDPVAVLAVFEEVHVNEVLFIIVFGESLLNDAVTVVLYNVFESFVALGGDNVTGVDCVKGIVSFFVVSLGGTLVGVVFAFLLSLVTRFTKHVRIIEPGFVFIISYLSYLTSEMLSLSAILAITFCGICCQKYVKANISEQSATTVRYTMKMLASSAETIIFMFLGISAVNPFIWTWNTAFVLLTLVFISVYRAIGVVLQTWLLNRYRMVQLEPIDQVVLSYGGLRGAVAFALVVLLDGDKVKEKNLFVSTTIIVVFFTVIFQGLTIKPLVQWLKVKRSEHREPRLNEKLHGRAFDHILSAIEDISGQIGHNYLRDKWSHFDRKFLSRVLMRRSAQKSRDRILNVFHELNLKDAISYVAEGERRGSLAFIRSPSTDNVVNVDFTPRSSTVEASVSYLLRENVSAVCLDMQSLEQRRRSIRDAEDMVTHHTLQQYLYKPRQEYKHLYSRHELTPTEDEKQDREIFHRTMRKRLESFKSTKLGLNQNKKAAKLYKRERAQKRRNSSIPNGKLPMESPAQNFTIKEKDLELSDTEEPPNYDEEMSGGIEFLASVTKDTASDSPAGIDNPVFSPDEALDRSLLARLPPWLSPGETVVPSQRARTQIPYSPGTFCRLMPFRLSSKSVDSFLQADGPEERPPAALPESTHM
Format: cell-based

Structure (SMILES) | inhibition at 10 µM [%]
CS(=O)(=O)c1ccc(O[C@H]2c3c(Cl)sc(Cl)c3CC[C@@H]2N2CCCC2)cc1 (racemic) [Example 253, 1-[1,3-dichloro-4-(4-methanesulfonylphenoxy)-4,5,6,7-tetrahydrobenzo[c]thiophen-5-yl]pyrrolidine] | 20 to 50

Same assay, conditions: LAP1 cells stably expressing NHE3; pH recovery after acidification; range 1 is % inhibition at 10 μM; read-out: Activity range (inhibitory effect on NHE3)

Structure (SMILES) | inhibition at 10 µM [%] | IC50 [nM]
NS(=O)(=O)c1ccc(O[C@H]2c3ccccc3C[C@@H]2NCc2ccccc2)c(F)c1 (racemic) [Example 459, 4-(2-benzylaminoindan-1-yloxy)-3-fluorobenzenesulfonamide] | 20 to 50 | –
COc1cc(Cl)cc(O[C@@H]2c3ccccc3C[C@H]2N2CCC[C@H](N)C2)c1 (racemic) [Example 164, (S)-1-[rac-trans-(1,2)-1-(3-chloro-5-methoxyphenoxy)indan-2-yl]piperidin-3-ylamine] | – | 1000 to 10000
Nc1cccc(O[C@@H]2c3ccccc3C[C@H]2N2CCCC2)c1 (racemic) [Example 401, 3-(rac-trans-(1,2)-2-pyrrolidin-1-ylindan-1-yloxy)phenylamine] | – | 1000 to 10000
N[C@@H]1CCCN([C@H]2CCc3ccccc3[C@@H]2Oc2ccc3oc(=O)sc3c2)C1 (racemic) [Example 578, 5-[rac-trans-(1,2)-2-((R)-3-aminopiperidin-1-yl)-1,2,3,4-tetrahydronaphthalen-1-yloxy]benzo[1,3]oxathiol-2-one] | 20 to 50 | –
CN1CCN(c2cccc(O[C@H]3c4cc(Cl)cc(Cl)c4C[C@@H]3N3CC[C@@H](O)C3)c2)C1=O [Example 319, 1-{3-[trans-(1S,2S)-4,6-dichloro-2-((R)-3-hydroxypyrrolidin-1-yl)indan-1-yloxy]phenyl}-3-methylimidazolidin-2-one] | – | 1000 to 10000
N[C@H]1CCCN([C@H]2CCc3ccccc3[C@@H]2Oc2ccc(F)cc2-c2cc[nH]n2)C1 (racemic) [Example 205, (S)-1-{rac-trans-(1,2)-1-[4-fluoro-2-(1H-pyrazol-3-yl)phenoxy]-1,2,3,4-tetrahydronaphthalen-2-yl}piperidin-3-ylamine] | 20 to 50 | –
O=c1[nH]ccn1-c1cccc(O[C@@H]2c3ccccc3C[C@H]2N2CCCC2)c1 (racemic) [Example 254, 1-[3-(rac-trans-(1,2)-2-pyrrolidin-1-ylindan-1-yloxy)phenyl]-1,3-dihydroimidazol-2-one] | – | < 1000
N[C@H]1CCCN([C@H]2CCc3ccccc3[C@@H]2Oc2cccc3ccc(Cl)nc23)C1 (racemic) [Example 154, (S)-1-[rac-trans-(1,2)-1-(2-chloroquinolin-8-yloxy)-1,2,3,4-tetrahydronaphthalen-2-yl]piperidin-3-ylamine] | – | 1000 to 10000
CN1CCN(c2cccc(O[C@H]3c4cc(Cl)cc(F)c4C[C@@H]3N3CC[C@@H](O)C3)c2)C1=O [Example 320, 1-{3-[trans-(1S,2S)-6-chloro-4-fluoro-2-((R)-3-hydroxypyrrolidin-1-yl)indan-1-yloxy]phenyl}-3-methylimidazolidin-2-one] | – | 1000 to 10000
CCc1ccc(O[C@@H]2c3ccccc3C[C@H]2N2CCC[C@@H](N)C2)c(C(C)(C)C)c1 (racemic) [Example 49, (R)-1-[rac-trans-(1,2)-1-(2-tert-butyl-4-ethylphenoxy)indan-2-yl]piperidin-3-ylamine] | – | 1000 to 10000
N#Cc1ccc(O[C@H]2c3cc(Cl)cc(Cl)c3C[C@@H]2N2CC[C@H](O)C2)c(F)c1 [Example 555, 4-[trans-(1S,2S)-4,6-dichloro-2-((S)-3-hydroxypyrrolidin-1-yl)indan-1-yloxy]-3-fluorobenzonitrile] | – | 1000 to 10000
NS(=O)(=O)c1ccc(OC2c3ccccc3CC2N2CC[C@@H](O)C2)cc1 (mixture of isomers) [Example 527, 4-[rac-trans-(1,2)-2-((R)-3-Hydroxypyrrolidin-1-yl)indan-1-yloxy]benzenesulfonamide] | – | 1000 to 10000
NS(=O)(=O)c1ccc(O[C@@H]2c3ccccc3C[C@H]2NC2CCCCCC2)c(F)c1 (racemic) [Example 713, 4-(rac-trans-(1,2)-2-Cycloheptylamino-indan-1-yloxy)-3-fluoro-benzenesulfonamide] | – | 1000 to 10000
N[C@@H]1CCCN([C@H]2CCc3ccccc3[C@@H]2Oc2cccc(Cl)c2)C1 (racemic) [Example 55, (R)-1-[rac-trans-(1,2)-1-(3-chlorophenoxy)-1,2,3,4-tetrahydronaphthalen-2-yl]piperidin-3-ylamine] | 20 to 50 | –
N[C@@H]1CCCN([C@H]2Cc3c(Cl)cc(Cl)cc3[C@@H]2Oc2ccc(-n3cncn3)cc2)C1 [Example 97, (R)-1-[trans-(1S,2S)-4,6-dichloro-1-(4-[1,2,4]triazol-1-ylphenoxy)indan-2-yl]piperidin-3-ylamine] | – | < 1000
CCN(CC)[C@@H]1Cc2ccccc2[C@H]1Oc1ccc(S(N)(=O)=O)c(Cl)c1Cl (racemic) [Example 355, 2,3-dichloro-4-(rac-trans-(1,2)-2-diethylaminoindan-1-yloxy)benzenesulfonamide] | – | 1000 to 10000
CS(=O)(=O)c1ccc(O[C@@H]2c3ccccc3C[C@H]2NCC2CC2)cc1 (racemic) [Example 624, Cyclopropylmethyl-[1-(4-methanesulfonylphenoxy)indan-2-yl]amine] | – | 1000 to 10000
COC(=O)c1ccc(O[C@H]2c3cc(Cl)cc(Cl)c3C[C@@H]2N2CC[C@@H](O)C2)c(F)c1 [Example 553, 4-[trans-(1S,2S)-4,6-dichloro-2-((R)-3-hydroxypyrrolidin-1-yl)indan-1-yloxy]-3-fluorobenzoic acid methyl ester] | – | 1000 to 10000
Cc1cc(C#N)cc(C)c1O[C@H]1c2ccccc2CC[C@@H]1N1CCC[C@@H](N)C1 (racemic) [Example 511, 4-[rac-trans-(1,2)-2-((R)-3-aminopiperidin-1-yl)-1,2,3,4-tetrahydronaphthalen-1-yloxy]-3,5-dimethylbenzonitrile] | 20 to 50 | –
O=C1OCCN1c1cccc(O[C@H]2c3cc(Cl)cc(Cl)c3C[C@@H]2N2CC[C@@H](O)C2)c1 [Example 419, 3-{3-[(1S,2S)-4,6-dichloro-2-((R)-3-hydroxypyrrolidin-1-yl)indan-1-yloxy]phenyl}oxazolidin-2-one] | – | 1000 to 10000
CS(=O)(=O)c1ccc(O[C@@H]2c3cc(Cl)cc(Cl)c3C[C@H]2n2ccnc2)cc1 (racemic) [Example 278, 1-[rac-trans-(1,2)-4,6-dichloro-1-(4-methanesulfonylphenoxy)indan-2-yl]-1H-imidazole] | – | 1000 to 10000
CS(=O)(=O)c1ccccc1O[C@H]1c2cc(Cl)cc(Cl)c2C[C@@H]1N1CCCC1 [Example 247, 1-[(1S,2S)-4,6-dichloro-1-(2-methanesulfonylphenoxy)indan-2-yl]pyrrolidine] | 20 to 50 | –
Cc1nnc(C)n1-c1ccc(O[C@H]2c3cc(Cl)c(Cl)cc3C[C@@H]2N2CCCC2)cc1 (racemic) [Example 498, 4-[4-(rac-trans-(1,2)-5,6-dichloro-2-pyrrolidin-1-ylindan-1-yloxy)phenyl]-3,5-dimethyl-4H-[1,2,4]triazole] | 20 to 50 | –
Fc1ccc(O[C@H]2c3cc(Cl)cc(Cl)c3C[C@@H]2N2CCNCC2)c(-c2cc[nH]n2)c1 [Example 309, 1-{(1S,2S)-4,6-dichloro-1-[4-fluoro-2-(1H-pyrazol-3-yl)phenoxy]indan-2-yl}piperazine] | – | < 1000
